Data: US20230128412A1, “METHODS FOR ENHANCING RECOMBINANT ADENO-[…] YIELD” (Ultragenyx Pharmaceutical Inc., priority 2020, published 2023)

Tests used:
Assay type in all cases: cell-based
HEK293 cells (rAAV8-OTC) [1] = assay: Effect of additional compounds on rAAV production with HEK293 cells, 24 deep-well plates; conditions: for rAAV titers (summary statement): HEK293 cells
Source text: In this example, the effect of compounds other than niacinamide on rAAV production in HEK293 cells was examined. The compounds analyzed in this example included niacin, methyl nicotinate, myo-inositol, pantothenic acid, pyridoxine, choline, thiamine, glucosamine, caffeine, n-acetyl glucosamine, and thymidine.
The experiment was run in 24 deep-well plates using the same cells as described in Example 5 under similar transfection and culture conditions. The concentrations of each compound tested were 1 mM, 3 mM, and 9 mM. […] None of the other compounds tested provided a significant benefit to rAAV titer at any of the three concentrations tested.

HeLa producer cells = assay: Effect of niacinamide concentration on rAAV production, HeLa producer cell lines, 24 deep-well plate; conditions: for normalized volumetric rAAV titer: Clade E and F rAAV
Procedure: (§1) In this example, the effect of various concentrations of niacinamide ranging from 0.1 mM to 40 mM on rAAV production was tested in a variety HeLa producer cell lines. The experiment was run in a 24 deep-well plate culture system with a 3 mL working volume, a seeding density of 0.2×10^6 cells in cell culture production medium, and an Ad5 multiplicity of infection (MOI) of 200 vp/cell. […] The capsid serotypes included in this analysis were AAV8, AAV9, rh10, and hu37.

[2] = tested on: HeLa producer cell line (AAVrh10-FIX); assay: Effect of vessel scale (24-DW vs 100 mL shake flask) with niacinamide on rAAV production; conditions: scale removed as a factor; all niacinamide concentrations
Procedure: In this example, the effect of scale using two common vessels (3 mL-deep well (“24-DW”) and 100 mL shake flask (“Flasks”)) with niacinamide on rAAV production was tested. The analysis was conducted using a HeLa producer cell line capable of producing a Clade E rAAV encoding a Factor IX transgene (AAVrh10-FIX). FIG. 3 depicts a bar graph showing rAAV titer (GC/mL) at varying niacinamide concentrations at the different scales. […] The scale and interaction factors were insignificant (p=0.3915 and p=0.1353 respectively).

[3] = tested on: HeLa clones (AAVrh10-FIX, AAV8-G6Pase, AAVhu37-FVIII); assay: Effect of niacinamide on rAAV production with Clade E HeLa clones; conditions: between 1 mM and 5 mM niacinamide; all four clones
Procedure: as §1
Four different HeLa clones were tested using the conditions described in Example 1. FIG. 4A-D show the rAAV titer (GC/mL) per varying niacinamide concentrations for Clone 1 (AAVrh10-FIX) follow-up supernatant, clone 2 (AAV8-G6Pase) supernatant, Clone 3 (AAV8-G6Pase) wide range with no supplement, and Clone 4 (AAVhu37-FVIII) wide range no supplement suspension (i.e., Triton-lysed sample), respectively.

[4] = tested on: HeLa producer cell line clones (AAV9-ATP7B); assay: Effect of niacinamide on rAAV production with Clade F HeLa clones, 2 L bioreactor; conditions: 3 mM niacinamide, both clones
Procedure: In this example, the effect of 3 mM niacinamide on two HeLa producer cell line clones expressing recombinant Clade F AAV encoding a truncated ATP7B transgene (AAV9-ATP7B) was examined in a 2 L bioreactor.

HEK293 cells (rAAV8-OTC) [5] = assay: Effect of niacinamide concentration on rAAV production with HEK293 cells
Procedure: In this example, the effect of various concentrations of niacinamide ranging from 0.03 mM to 30 mM on rAAV production was tested with HEK293 cells. The experiment was run in 30 mL flasks using a transfection density of 1.3×10^6 to 2.0×10^6 cells/mL. The HEK293 cells used in this experiment were transfected with plasmids enabling the production of rAAV8 encoding an ornithine transcarbamylase (rAAV8-OTC).

[6] = niacinamide between 1 mM and 10 mM

In the case of `OC1C(O)C(O)C(O)C(O)C1O` (centres unmarked) [myo-inositol], the increase in titer (HEK293 cells (rAAV8-OTC) [1]; 3 mM compound) is reported as “approximately 20%”, the increase in titer (HEK293 cells (rAAV8-OTC) [1]; 9 mM compound) is reported as “approximately 20%” and the “rAAV titers (summary statement)” value (HEK293 cells (rAAV8-OTC) [1]) is reported as “can boost rAAV titers”.

With `COC(=O)c1cccnc1` [methyl nicotinate] the increase in titer (HEK293 cells (rAAV8-OTC) [1]; 3 mM compound) was 42% and the “rAAV titers (summary statement)” value (HEK293 cells (rAAV8-OTC) [1]) was “can boost rAAV titers”.

For `NC(=O)c1cccnc1` [niacinamide], the “niacinamide concentration of predicted maximum rAAV titer (3rd-order polynomial fit)” value (HeLa producer cells; fit of normalized titer data points, FIG. 2) was 5 mM, the “normalized volumetric rAAV titer” value (HeLa producer cells; niacinamide 0.1 mM to 10 mM, relative to no niacinamide) was “Increases in rAAV titer” and the “normalized volumetric rAAV titer (GC/mL), 3rd-order polynomial fit” value (HeLa producer cells; [6]) was “Significant increases in rAAV titer”. For the same compound, the “normalized volumetric rAAV titer” value (HeLa producer cells; [6]) was “most significant increases”, the “rAAV titer, Dunnett's Test” value [2] was “significance at all concentrations” and the “rAAV titer (GC/mL)” value [3] was “titer increase”. The rAAV titer [4] was “significant titer increase”, the rAAV titer (HEK293 cells (rAAV8-OTC) [5]; 0.3 mM niacinamide, 30 mL flasks) was “increases in titer” and the rAAV titer (HEK293 cells (rAAV8-OTC) [5]; 3 mM niacinamide, 30 mL flasks) was “increases in titer”. The rAAV titer (HEK293 cells (rAAV8-OTC) [5]; repeat run at 2 L bioreactor scale (data not shown)) was “increase in titer” and the “level of benefit to rAAV titer compared with the other compounds” value (HEK293 cells (rAAV8-OTC) [1]; niacinamide versus the 11 compounds of Example 6) was “substantially and surprisingly superior to the other 11 compounds examined”.

With `O=C(O)c1cccnc1` [niacin] the increase in titer (HEK293 cells (rAAV8-OTC) [1]; 1 mM compound) was 20% and the “rAAV titers (summary statement)” value (HEK293 cells (rAAV8-OTC) [1]) was “can boost rAAV titers”.

For `C[N+](C)(C)CCO` [choline], the increase in titer (HEK293 cells (rAAV8-OTC) [1]; 3 mM compound) was 65% and the “rAAV titers (summary statement)” value (HEK293 cells (rAAV8-OTC) [1]) was “can boost rAAV titers”.
